Reference: the CheMixHub viscosity set
“And” between values parts separate entries of the source, which are not always exact repeats. Equal entries are not always repeated.

Test: xn = mol fraction of the nth substance listed

COC(C)=O + CCCCCC
Conditions | viscosity [mPa·s]
298.15 K, 101 kPa, x1 = 0.0412 | 0.29
298.15 K, 101 kPa, x1 = 0.1497 | 0.289
298.15 K, 101 kPa, x1 = 0.2521 | 0.291
298.15 K, 101 kPa, x1 = 0.3502 | 0.295
298.15 K, 101 kPa, x1 = 0.4406 | 0.3
298.15 K, 101 kPa, x1 = 0.4839 | 0.303
298.15 K, 101 kPa, x1 = 0.5505 | 0.309
298.15 K, 101 kPa, x1 = 0.6499 | 0.32
298.15 K, 101 kPa, x1 = 0.7508 | 0.334
298.15 K, 101 kPa, x1 = 0.8488 | 0.351
298.15 K, 101 kPa, x1 = 0.941 | 0.37
298.15 K, 101.3 kPa, x1 = 0.1056 | 0.2969
298.15 K, 101.3 kPa, x1 = 0.2943 | 0.2941
298.15 K, 101.3 kPa, x1 = 0.4514 | 0.2996
298.15 K, 101.3 kPa, x1 = 0.5616 | 0.3071
298.15 K, 101.3 kPa, x1 = 0.6895 | 0.3189
298.15 K, 101.3 kPa, x1 = 0.7175 | 0.3223
298.15 K, 101.3 kPa, x1 = 0.8224 | 0.342
298.15 K, 101.3 kPa, x1 = 0.9171 | 0.365
303.15 K, 101.3 kPa, x1 = 0.1069 | 0.276
303.15 K, 101.3 kPa, x1 = 0.204 | 0.2755
303.15 K, 101.3 kPa, x1 = 0.306 | 0.2772
303.15 K, 101.3 kPa, x1 = 0.406 | 0.2809
303.15 K, 101.3 kPa, x1 = 0.4998 | 0.2857
303.15 K, 101.3 kPa, x1 = 0.602 | 0.2937
303.15 K, 101.3 kPa, x1 = 0.6984 | 0.3048
303.15 K, 101.3 kPa, x1 = 0.8014 | 0.3165
303.15 K, 101.3 kPa, x1 = 0.8998 | 0.3298
308.15 K, 101 kPa, x1 = 0.0412 | 0.272
308.15 K, 101 kPa, x1 = 0.1497 | 0.271
308.15 K, 101 kPa, x1 = 0.2521 | 0.273
308.15 K, 101 kPa, x1 = 0.3502 | 0.276
308.15 K, 101 kPa, x1 = 0.4406 | 0.28
308.15 K, 101 kPa, x1 = 0.4839 | 0.283
308.15 K, 101 kPa, x1 = 0.5505 | 0.288
308.15 K, 101 kPa, x1 = 0.6499 | 0.297
308.15 K, 101 kPa, x1 = 0.7508 | 0.309
308.15 K, 101 kPa, x1 = 0.8488 | 0.323
308.15 K, 101 kPa, x1 = 0.941 | 0.339

C1CCCCC1 + CCCO
Conditions | viscosity [mPa·s]
298.15 K, 100 kPa, x2 = 0.0547 | 0.8988
298.15 K, 100 kPa, x2 = 0.1077 | 0.9091
298.15 K, 100 kPa, x2 = 0.1968 | 0.9202
298.15 K, 100 kPa, x2 = 0.3164 | 0.9358
298.15 K, 100 kPa, x2 = 0.4278 | 1.013
298.15 K, 100 kPa, x2 = 0.6293 | 1.243
298.15 K, 100 kPa, x2 = 0.8064 | 1.502
298.15 K, 100 kPa, x2 = 0.8873 | 1.626
298.15 K, 101 kPa, x2 = 0.0166 | 0.873
298.15 K, 101 kPa, x2 = 0.0647 | 0.865
298.15 K, 101 kPa, x2 = 0.1219 | 0.867
298.15 K, 101 kPa, x2 = 0.2231 | 0.889
298.15 K, 101 kPa, x2 = 0.3207 | 0.946
298.15 K, 101 kPa, x2 = 0.3805 | 0.994
298.15 K, 101 kPa, x2 = 0.7039 | 1.371
298.15 K, 101 kPa, x2 = 0.8023 | 1.529
303.15 K, 101 kPa, x2 = 0.6491 | 1.1
303.15 K, 101.33 kPa, x2 = 0.109 | 0.8411
303.15 K, 101.33 kPa, x2 = 0.208 | 0.8728
303.15 K, 101.33 kPa, x2 = 0.3385 | 0.9327
303.15 K, 101.33 kPa, x2 = 0.4215 | 0.9852
303.15 K, 101.33 kPa, x2 = 0.6115 | 1.141
303.15 K, 101.33 kPa, x2 = 0.708 | 1.237
303.15 K, 101.33 kPa, x2 = 0.8094 | 1.37
308.15 K, 100 kPa, x2 = 0.0547 | 0.718
308.15 K, 100 kPa, x2 = 0.1077 | 0.7248
308.15 K, 100 kPa, x2 = 0.1968 | 0.7355
308.15 K, 100 kPa, x2 = 0.3164 | 0.7941
308.15 K, 100 kPa, x2 = 0.4278 | 0.8335
308.15 K, 100 kPa, x2 = 0.5319 | 0.8971
308.15 K, 100 kPa, x2 = 0.6293 | 0.9922
308.15 K, 100 kPa, x2 = 0.7206 | 1.095
308.15 K, 100 kPa, x2 = 0.8064 | 1.203
308.15 K, 100 kPa, x2 = 0.8873 | 1.317
308.15 K, 100 kPa, x2 = 0.9635 | 1.491
308.15 K, 101 kPa, x2 = 0.0166 | 0.736
308.15 K, 101 kPa, x2 = 0.0647 | 0.73
308.15 K, 101 kPa, x2 = 0.1219 | 0.732
308.15 K, 101 kPa, x2 = 0.2231 | 0.746
308.15 K, 101 kPa, x2 = 0.3207 | 0.782
308.15 K, 101 kPa, x2 = 0.3805 | 0.818
308.15 K, 101 kPa, x2 = 0.4203 | 0.845
308.15 K, 101 kPa, x2 = 0.6491 | 1.022
308.15 K, 101 kPa, x2 = 0.7039 | 1.099
308.15 K, 101 kPa, x2 = 0.8023 | 1.218
313.15 K, 101 kPa, x2 = 0.6491 | 0.9392
318.15 K, 101 kPa, x2 = 0.0166 | 0.634
318.15 K, 101 kPa, x2 = 0.0647 | 0.626
318.15 K, 101 kPa, x2 = 0.1219 | 0.624
318.15 K, 101 kPa, x2 = 0.2231 | 0.634
318.15 K, 101 kPa, x2 = 0.3207 | 0.66
318.15 K, 101 kPa, x2 = 0.3805 | 0.683
318.15 K, 101 kPa, x2 = 0.4203 | 0.706
318.15 K, 101 kPa, x2 = 0.7039 | 0.896
318.15 K, 101 kPa, x2 = 0.8023 | 0.992

COCCOC + O=[N+]([O-])c1ccccc1
298.15 K, 101 kPa
Conditions | viscosity [mPa·s]
x1 = 0.1318 | 1.472
x1 = 0.2546 | 1.27
x1 = 0.3693 | 1.087
x1 = 0.4766 | 0.929
x1 = 0.5774 | 0.793
x1 = 0.672 | 0.688
x1 = 0.7612 | 0.599
x1 = 0.8453 | 0.523
x1 = 0.9248 | 0.462

CN(C)N + O
293.15 K, 101.3 kPa
Conditions | viscosity [mPa·s]
x1 = 0.0499 | 2.05
x1 = 0.1018 | 3.64
x1 = 0.1471 | 6.22
x1 = 0.2 | 8.22
x1 = 0.2498 | 8.46
x1 = 0.2984 | 7.51
x1 = 0.3466 | 6.25
x1 = 0.3995 | 4.78
x1 = 0.4482 | 4.23
x1 = 0.4994 | 2.95
x1 = 0.5955 | 2.28
x1 = 0.6986 | 1.27
x1 = 0.8064 | 0.9
x1 = 0.8999 | 0.69

CCC(C)=O + Cc1ccccc1
viscosity, 101 kPa
Conditions | 298.15 K | 303.15 K | 308.15 K
x1 = 0.1009 | – | 0.516 mPa·s | –
x1 = 0.2412 | – | 0.496 mPa·s | –
x1 = 0.3948 | – | 0.475 mPa·s | –
x1 = 0.524 | – | 0.458 mPa·s | –
x1 = 0.7006 | – | 0.431 mPa·s | –
x1 = 0.8899 | – | 0.397 mPa·s | –
x2 = 0.0856 | 0.4052 mPa·s and 0.4052 mPa·s | 0.3822 mPa·s and 0.3822 mPa·s | 0.3593 mPa·s and 0.3593 mPa·s
x2 = 0.1724 | 0.4244 mPa·s and 0.4244 mPa·s | 0.3996 mPa·s and 0.3996 mPa·s | 0.3756 mPa·s and 0.3756 mPa·s
x2 = 0.2624 | 0.4439 mPa·s and 0.4439 mPa·s | 0.4176 mPa·s and 0.4176 mPa·s | 0.3922 mPa·s and 0.3922 mPa·s
x2 = 0.337 | 0.4594 mPa·s and 0.4594 mPa·s | 0.432 mPa·s and 0.432 mPa·s | 0.4061 mPa·s and 0.4061 mPa·s
x2 = 0.433 | 0.4781 mPa·s and 0.4781 mPa·s | 0.4494 mPa·s and 0.4494 mPa·s | 0.423 mPa·s and 0.423 mPa·s
x2 = 0.5555 | 0.4987 mPa·s and 0.4987 mPa·s | 0.4688 mPa·s and 0.4688 mPa·s | 0.4417 mPa·s and 0.4417 mPa·s
x2 = 0.66 | 0.5145 mPa·s and 0.5145 mPa·s | 0.4844 mPa·s and 0.4844 mPa·s | 0.4575 mPa·s and 0.4575 mPa·s
x2 = 0.769 | 0.5308 mPa·s and 0.5308 mPa·s | 0.5002 mPa·s and 0.5002 mPa·s | 0.4738 mPa·s and 0.4738 mPa·s
x2 = 0.8831 | 0.5472 mPa·s and 0.5472 mPa·s | 0.5168 mPa·s and 0.5168 mPa·s | 0.4909 mPa·s and 0.4909 mPa·s

COc1ccccc1N + CNC=O
viscosity [mPa·s], 100 kPa
Conditions | x2 = 0.0714 | x2 = 0.1715 | x2 = 0.2636 | x2 = 0.3576 | x2 = 0.4701 | x2 = 0.5625 | x2 = 0.6556 | x2 = 0.7454 | x2 = 0.8325
303.15 K | 4.69 | 4.361 | 4.058 | 3.747 | 3.373 | 3.065 | 2.753 | 2.45 | 2.155
308.15 K | 4.301 | 4.001 | 3.725 | 3.441 | 3.1 | 2.817 | 2.532 | 2.256 | 1.986
313.15 K | 3.99 | 3.713 | 3.456 | 3.192 | 2.875 | 2.613 | 2.348 | 2.091 | 1.841
318.15 K | 3.702 | 3.446 | 3.209 | 2.964 | 2.67 | 2.428 | 2.182 | 1.944 | 1.711

OCCNCCO + OCCO
298 K, 101.3 kPa
Conditions | viscosity [mPa·s]
x1 = 0.0049 | 17.27
x1 = 0.01 | 17.72
x1 = 0.044 | 20.95
x1 = 0.07152 | 25.16
x1 = 0.09514 | 28.03
x1 = 0.1331 | 37.15

COc1ccccc1N + CCC(=O)O
viscosity [mPa·s], 100 kPa
Conditions | x1 = 0.1097 | x1 = 0.183 | x1 = 0.2628 | x1 = 0.3502 | x1 = 0.4802 | x1 = 0.5897 | x1 = 0.6693 | x1 = 0.7549 | x1 = 0.8961
303.15 K | 1.402 | 1.697 | 2.017 | 2.367 | 2.884 | 3.317 | 3.631 | 3.967 | 4.518
308.15 K | 1.3 | 1.575 | 1.873 | 2.198 | 2.679 | 3.082 | 3.373 | 3.685 | 4.197
313.15 K | 1.197 | 1.452 | 1.727 | 2.028 | 2.472 | 2.844 | 3.113 | 3.401 | 3.873
318.15 K | 1.097 | 1.333 | 1.587 | 1.865 | 2.275 | 2.619 | 2.867 | 3.132 | 3.567
